{
  "source": "patent US20150328147A1",
  "about": "“METHOD FOR INTRODUCING BIOLOGICALLY ACTIVE SUBSTANCES INTO THE BRAIN” (BBU-VITA CORP., priority 2012, published 2015)",
  "key": {"[1]": {"test_system": "haloperidol catalepsy model", "details": "for re-animation of spontaneous motor activity: nasal 2 × 50 μL after haloperidol i.p., dopamine 10^−2M (0.8 mg/kg), H2O2 10^−5M (34 ng/animal)"}, "[2]": {"test_system": "haloperidol catalepsy model", "excerpt": "The criteria of the evaluation: the change in spontaneous motor activity as the sum of movements of the rats in different groupings of the animals, in the “open field” test."}, "[3]": {"test_system": "haloperidol catalepsy model", "remark": "listed apart in the source", "excerpt": "The criteria of the evaluation: the change in spontaneous motor activity as the sum of movements of the rats in different groupings of the animals, in the “open field” test. The animal groups: control group: “intact control” (Group I), “haloperidol i.p.” (Group II), “haloperidol i.p.+nasal dopamine” (Group III), and “haloperidol i.p.+nasal L-arginine” in various concentrations (Groups IV and V)."}, "[4]": {"test_system": "haloperidol catalepsy model", "details": "earlier demonstration (DE 102 48 601); cited from earlier work"}, "[5]": {"test_system": "sexually mature white rats", "test": "Experiment 3: duration of phenobarbital sleep after single or fractionated nasal administration with H2O2", "format": "in vivo", "details": "phenobarbital 90 mg/kg, H2O2 10^−5M", "source_text": "Experiment 3: The effect of phenobarbital was investigated experimentally on sexually mature white rats, using a nasal administration. The sleep duration conditioned by phenobarbital following nasal administration of phenobarbital was compared against the presence and absence of vaso-active and neuroactive substance. The typical results of an experiment are listed in Tab. 4."}, "[6]": {"details": "with nasal dopamine 10^−3M, haloperidol model"}, "[7]": {"details": "Experiment 1, haloperidol i.p. 100 mg/kg, without H2O2, nasal dopamine 10^−3M where given, sum of movements, open field"}, "[8]": {"details": "Experiment 2, haloperidol i.p. 100 mg/kg, without L-arginine, nasal dopamine 10^−3M where given, sum of movements, open field"}},
  "note": "Where two headings read alike, the source gives them in different places.",
  "data": [
    {"compound": "OO", "note": "[H2O2, hydrogen peroxide]", "values": [
      {"measurement": "re-animation of spontaneous motor activity", "setting": "[1]", "result": "did not re-animate the motor activity"},
      {"measurement": "Spontaneous activity", "setting": "[2]; Experiment 1, haloperidol i.p., nasal H2O2 10^−4M (dopamine 10^−3M in the mixture)", "result": "1.8 ± 2.2 ^##)"},
      {"measurement": "Spontaneous activity", "setting": "[2]; Experiment 1, haloperidol i.p., nasal H2O2 10^−5M", "result": "3 ± 1.9 ^##)"},
      {"measurement": "minimal effective concentration of the endonasal hydrogen peroxide", "setting": "[2]; [6]", "result": "10^−8 to 10^−10 M"}
    ]},
    {"compound": "NCCc1ccc(O)c(O)c1", "note": "[dopamine]", "values": [
      {"measurement": "re-animation of spontaneous motor activity", "setting": "[1]", "result": "did not re-animate the motor activity"},
      {"measurement": "Spontaneous activity", "setting": "[2]; [7]", "result": "2 ± 1.7 ^##)"},
      {"measurement": "Spontaneous activity", "setting": "[3]; [8]", "result": "2.6 ± 1.7 ^##)"}
    ]},
    {"compound": "O=C(CCCN1CCC(O)(c2ccc(Cl)cc2)CC1)c1ccc(F)cc1", "note": "[haloperidol]", "values": [
      {"measurement": "reduction of spontaneous motor activity", "setting": "[1]; single i.p. haloperidol 0.25 mg/kg, cataleptic response", "result": 85, "unit": "%"},
      {"measurement": "Spontaneous activity", "setting": "[2]; [7]", "result": "3 ± 3 ^##)"},
      {"measurement": "Spontaneous activity", "setting": "[3]; [8]", "result": "3.7 ± 3 ^##)"}
    ]},
    {"compound": "N=C(N)NCCC[C@H](N)C(=O)O", "note": "[L-arginine]", "values": [
      {"measurement": "Spontaneous activity", "setting": "[3]; Experiment 2, haloperidol i.p., nasal L-arginine 10^−3M (dopamine 10^−3M in the mixture)", "result": "6.4 ± 3.4 ^##)"},
      {"measurement": "Spontaneous activity", "setting": "[3]; Experiment 2, haloperidol i.p., nasal L-arginine 10^−5M", "result": "4.8 ± 2.7 ^##)"},
      {"measurement": "minimal effective concentration of the endonasal L-arginine", "setting": "[3]; [6]", "result": "~10^−7 M"},
      {"measurement": "reanimation of spontaneous motor activity by L-arginine administered nasally together with dopamine", "setting": "[4]", "result": "able to reanimate spontaneous motor activity"}
    ]},
    {"compound": "CCC1(c2ccccc2)C(=O)NC(=O)NC1=O", "note": "[phenobarbital]", "values": [
      {"measurement": "Duration of the experimental sleep (Minutes following the last administration)", "setting": "[5]; single nasal application of the full dose 18 mg, 2 × 100 μL", "result": "128 ± 11.1", "unit": "min"},
      {"measurement": "Duration of the experimental sleep (Minutes following the last administration)", "setting": "[5]; triple nasal application of partial doses 3 × 6 (mg), interval 60 s", "result": "161 ± 21.1", "unit": "min"}
    ]}
  ]
}
